# Data as given in patent US20230085307A1, “PYRIDAZINONE COMPOUND AND HERBICIDE” (NISSAN CHEMICAL CORPORATION, priority 2019, published 2023).
# How the values were obtained:
# late watergrass [1] = experiment: Test Example 1: herbicidal activity, application before weed generation under submerged conditions (Table 16, symbol A); assay type: in vivo, late watergrass (Echinochloa oryzicola)
# Method in brief: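 Emulsion formulation, water-diluted to set dose, was put onto the flooded surface (4 cm depth, alluvial soil) the same day weeds were sown and 2.5-leaf rice transplanted. After 3 weeks at 25-30 °C under glass, each species was rated 0 (≤5% kill) to 5 (≥90% kill).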
# late watergrass [2] = experiment: Test Example 2: herbicidal activity, application during weed generation under submerged conditions (Table 17, symbol A); assay type: in vivo, late watergrass (Echinochloa oryzicola); details: application during weed generation, submerged conditions
# Method in brief: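 Herbicide emulsion, diluted with water to the chosen amount, is applied onto 4 cm floodwater over alluvial soil where the weeds were co-sown and raised at 25–30° C. Application timing: 1–2 leaves. Assessment: three weeks afterwards.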
# Chinese sprangletop = experiment: Test Example 3: herbicidal effect by foliage application, Wagner pot (Table 18, symbol D); assay type: in vivo, chinese sprangletop (Leptochloa chinensis)
# Method in brief: (§1)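 Plants were sown in alluvial soil held under 0.1–0.5 cm standing water and grown 14 days in a greenhouse at 25–30 °C. An emulsifiable formulation, water-diluted to the set dose, was then sprayed onto the foliage, and effects were scored three weeks later using previously defined criteria.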
# rice flat sedge = experiment: Test Example 3: herbicidal effect by foliage application, Wagner pot (Table 18, symbol E); assay type: in vivo, rice flat sedge (Cyperus iria)
# Method in brief: as §1
# southern crabgrass = experiment: Test Example 4: herbicidal effect by soil treatment (Table 19, symbol F); assay type: in vivo, southern crabgrass (Digitaria ciliaris)
# Method in brief: (§2)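 Herbicidal effect was rated 3 weeks after treatment, using the scoring criteria of an earlier test. The compound, formulated as an emulsion and diluted in water to a set herbicide amount, had been sprayed uniformly on soil over freshly sown seeds. Growth took place in a greenhouse at 25° C. to 30° C.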
# wild oat [3] = experiment: Test Example 4: herbicidal effect by soil treatment (Table 19, symbol I); assay type: in vivo, wild oat (Avena fatua)
# Method in brief: as §2
# Italian ryegrass [4] = experiment: Test Example 4: herbicidal effect by soil treatment (Table 19, symbol K); assay type: in vivo, Italian ryegrass (Lolium multiflorum)
# Method in brief: as §2
# windgrass = experiment: Test Example 4: herbicidal effect by soil treatment (Table 19, symbol L); assay type: in vivo, windgrass (Apera spica-venti)
# Method in brief: as §2
# lambsquarters [5] = experiment: Test Example 4: herbicidal effect by soil treatment (Table 19, symbol O); assay type: in vivo, lambsquarters (Chenopodium album)
# Method in brief: as §2
# chickweed [6] = experiment: Test Example 4: herbicidal effect by soil treatment (Table 19, symbol P); assay type: in vivo, common chickweed (Stellaria media)
# Method in brief: as §2
# barnyard grass = experiment: Test Example 5: herbicidal effect by foliage application, plastic box (Table 20, symbol H); assay type: in vivo, barnyard grass (Echinochloa crus-galli); details: foliage application, three weeks after application
# Method in brief: (§3)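 Foliar spray test: emulsion formulation diluted in water to a set application rate, sprayed onto 14-day-old plants raised in diluvial soil at 25° C to 30° C under glass. Both herbicidal effect and crop effect rated visually three weeks later.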
# wild oat [7] = experiment: Test Example 5: herbicidal effect by foliage application, plastic box (Table 20, symbol I); assay type: in vivo, wild oat (Avena fatua); details: foliage application, three weeks after application
# Method in brief: as §3
# Italian ryegrass [8] = experiment: Test Example 5: herbicidal effect by foliage application, plastic box (Table 20, symbol K); assay type: in vivo, Italian ryegrass (Lolium multiflorum); details: foliage application, three weeks after application
# Method in brief: as §3
# redroot pigweed = experiment: Test Example 5: herbicidal effect by foliage application, plastic box (Table 20, symbol N); assay type: in vivo, redroot pigweed (Amaranthus retroflexus); details: foliage application, three weeks after application
# Method in brief: as §3
# lambsquarters [9] = experiment: Test Example 5: herbicidal effect by foliage application, plastic box (Table 20, symbol O); assay type: in vivo, lambsquarters (Chenopodium album); details: foliage application, three weeks after application
# Method in brief: as §3
# chickweed [10] = experiment: Test Example 5: herbicidal effect by foliage application, plastic box (Table 20, symbol P); assay type: in vivo, common chickweed (Stellaria media); details: foliage application, three weeks after application
# Method in brief: as §3
# [11] = amount of applied herbicide 80 g/ha
# [12] = amount of applied herbicide 320 g/ha
compound,measurement,setting,value
CCOc1ccccc1-c1sc2cc(OC)ccc2c1-c1c(O)c(C)nn(C)c1=O [3-070],"Herbicidal effect, A: late watergrass",late watergrass [1]; [11],5 (Herbicidal rate of 90% or more (almost completely withered))
same,"herbicidal effect rating, A: late watergrass",late watergrass [2]; AAH 80 g/ha,3 (Herbicidal rate of 40% or more and less than 70%)
same,herbicidal effect on Chinese sprangletop (D),Chinese sprangletop; 80 g/ha,5 (Herbicidal rate of 90% or more (almost completely withered))
same,herbicidal effect on rice flat sedge (E),rice flat sedge; 80 g/ha,5 (Herbicidal rate of 90% or more (almost completely withered))
same,"F: southern crabgrass, herbicidal effect grade",southern crabgrass; [11],4 (Herbicidal rate of 70% or more and less than 90%)
same,"I: wild oat, herbicidal effect grade",wild oat [3]; [11],0 (Herbicidal rate of 5% or less (almost no effect))
same,"K: Italian ryegrass, herbicidal effect grade",Italian ryegrass [4]; [11],0 (Herbicidal rate of 5% or less (almost no effect))
same,"L: windgrass, herbicidal effect grade",windgrass; [11],0 (Herbicidal rate of 5% or less (almost no effect))
same,"O: lambsquarters, herbicidal effect grade",lambsquarters [5]; [11],0 (Herbicidal rate of 5% or less (almost no effect))
same,"P: chickweed, herbicidal effect grade",chickweed [6]; [11],4 (Herbicidal rate of 70% or more and less than 90%)
same,"H: barnyard grass, herbicidal effect grade",barnyard grass; 80 g/ha,5 (Herbicidal rate of 90% or more (almost completely withered))
same,"I: wild oat, herbicidal effect grade",wild oat [7]; 80 g/ha,5 (Herbicidal rate of 90% or more (almost completely withered))
same,"K: Italian ryegrass, herbicidal effect grade",Italian ryegrass [8]; 80 g/ha,4 (Herbicidal rate of 70% or more and less than 90%)
same,"N: redroot pigweed, herbicidal effect grade",redroot pigweed; 80 g/ha,5 (Herbicidal rate of 90% or more (almost completely withered))
same,"O: lambsquarters, herbicidal effect grade",lambsquarters [9]; 80 g/ha,5 (Herbicidal rate of 90% or more (almost completely withered))
same,"P: chickweed, herbicidal effect grade",chickweed [10]; 80 g/ha,5 (Herbicidal rate of 90% or more (almost completely withered))
"Cc1nn(C)c(=O)c(-c2c(-c3ccc(C#N)cc3)sc3ccccc23)c1O [Compound No. 1-045, 5-hydroxy-2,6-dimethyl-4-(2-(4-cyanophenyl)benzo[b]thiophen-3-yl)pyridazin-3(2H)-one]",Herbicidal effect on A: late watergrass (grade 0-5),late watergrass [1]; 320 g/ha applied herbicide,1 (Herbicidal rate of 5% or more and less than 20%)
same,"herbicidal effect rating, A: late watergrass",late watergrass [2]; AAH 320 g/ha,1 (Herbicidal rate of 5% or more and less than 20%)
same,"herbicidal effect on D (Chinese sprangletop), rating 0-5",Chinese sprangletop; 320 g/ha,4 (Herbicidal rate of 70% or more and less than 90%)
same,"herbicidal effect on E (rice flat sedge), rating 0-5",rice flat sedge; 320 g/ha,5 (Herbicidal rate of 90% or more (almost completely withered))
same,"herbicidal effect rating, F: southern crabgrass",southern crabgrass; [12],4 (Herbicidal rate of 70% or more and less than 90%)
same,"herbicidal effect rating, I: wild oat",wild oat [3]; [12],0 (Herbicidal rate of 5% or less (almost no effect))
same,"herbicidal effect rating, K: Italian ryegrass",Italian ryegrass [4]; [12],5 (Herbicidal rate of 90% or more (almost completely withered))
same,"herbicidal effect rating, L: windgrass",windgrass; [12],0 (Herbicidal rate of 5% or less (almost no effect))
same,"herbicidal effect rating, O: lambsquarters",lambsquarters [5]; [12],5 (Herbicidal rate of 90% or more (almost completely withered))
same,"herbicidal effect rating, P: chickweed",chickweed [6]; [12],4 (Herbicidal rate of 70% or more and less than 90%)
same,"herbicidal effect grade, H: barnyard grass",barnyard grass; 320 g/ha,4 (Herbicidal rate of 70% or more and less than 90%)
same,"herbicidal effect grade, I: wild oat",wild oat [7]; 320 g/ha,3 (Herbicidal rate of 40% or more and less than 70%)
same,"herbicidal effect grade, K: Italian ryegrass",Italian ryegrass [8]; 320 g/ha,5 (Herbicidal rate of 90% or more (almost completely withered))
same,"herbicidal effect grade, N: redroot pigweed",redroot pigweed; 320 g/ha,5 (Herbicidal rate of 90% or more (almost completely withered))
same,"herbicidal effect grade, O: lambsquarters",lambsquarters [9]; 320 g/ha,5 (Herbicidal rate of 90% or more (almost completely withered))
same,"herbicidal effect grade, P: chickweed",chickweed [10]; 320 g/ha,5 (Herbicidal rate of 90% or more (almost completely withered))
